How the values were obtained:
[1] = test system: PC-3 cells; assay: MTT cell viability assay, PC-3 cells in 10% FBS medium; assay type: cell-based, human; details: RPMI 1640 with 10% FBS, means ± S.D. (n = 6)
Procedure: PC-3 (p53−/−) human androgen-nonresponsive prostate cancer cells were purchased from the American Type Tissue Collection (Manassas, Va.). Cells were cultured in RPMI 1640 medium (Gibco, Grand Island, N.Y.) supplemented with 10% fetal bovine serum (FBS; Gibco) at 37° C. in a humidified incubator containing 5% CO2.
(§1) Effect of the test agent on cell viability was assessed by the MTT {[3-(4,5-dimethylthiazol-2-yl)-2,5-diphenyl-2H-tetrazolium bromide]} assay in 96-well, flat-bottomed plates, in which 8,000 PC-3 or DU-145 cells/well were seeded. Cells were exposed to the test agent at the indicated concentrations, in six replicates, in 10% FBS-supplemented-RPMI-1640 medium at 37° C. in 5% CO2 for 48 hr. The medium was removed and replaced by 150 μL of 0.5 mg/mL of MTT in RPMI-1640 medium, and cells were incubated in the CO2 incubator at 37° C. for 2 h. Supernatants were removed from the wells, and the reduced MTT dye was solubilized with 200 μL/well DMSO. Absorbance was determined on a plate reader at 570 nm.
All compounds were evaluated for their ability to induce apoptotic death in human androgen-independent PC-3 prostate cancer in RPMI 1640 medium containing 10% fetal bovine serum (FBS). For representative compounds tested in DU-145 and LNCaP prostate cancer cells, the IC50 values for inhibiting cell proliferation were similar in these three cell lines irrespective of differences in androgen sensitivity, PTEN mutation, the functional status of p53 and Rb, and other biomarkers.

[2] = test system: PC-3 cells; assay: Cell viability / apoptotic death of PC-3 cells in 1% FBS-supplemented RPMI 1640 medium; assay type: cell-based, human; details: Homo sapiens, 1% FBS-supplemented medium, 48 h, read-out: IC50
From the text: (§2) (A) Left panel, Time- and dose-dependent effect of doxazosin on the cell viability of PC-3 cells in 1% FBS-supplemented RPMI 1640 medium. Values obtained from six replicates were plotted at each time point at the indicated concentrations of doxazosin. Right panel, induction of poly(ADP-ribose) polymerase (PARP) cleavage by doxazosin at the indicated concentrations after 48-h treatment. PARP proteolysis to the apoptosis-specific 85-kd fragment was monitored by Western blotting. Although there was no substantial accumulation of the 85-kd fragment, significant decrease in the level of native protein was noted. (B) Dose- and time-dependent (upper and lower panels, respectively) effects of doxazosin on Akt phosphorylation. (C) dose-dependent effect of doxazosin on ERK phosphorylation. PC-3 cells were treated with doxazosin at the indicated concentrations for 24 h or at 25 μM for the indicated times and lysed, and proteins in the resulting supernatants were resolved on SDS-PAGE and subjected to Western blot analysis. The phosphorylation status of Akt and ERKs was determined by immunoblotting with the respective phospho-specific antibodies. Unphosphorylated Akt and ERKs, as immunostained by anti-Akt and anti-ERK antibodies, were used as internal standards for the comparison of phospho-Akt and phospho-ERK levels among samples of different preparations. The blots are representative of three independent experiments.
(§3) (B) Western blot analysis of […] proteolysis and Akt dephosphorylation in PC-3 cells treated with the indicated concentrations of 33 for 48 h. (C) Effects of compound 44 on Akt phosphorylation in PC-3 cells treated with the indicated concentrations for 48 h.
as §1
Doxazosin induced apoptosis, in part, by facilitating Akt dephosphorylation. […] The potency of doxazosin in inducing apoptosis, however, was moderate.

[3] = test system: Akt; assay: Western blot analysis of Akt phosphorylation in PC-3 cells; assay type: cell-based, human; details: for effect on Akt phosphorylation: Western blot
From the text: as §2, §3
PC-3 cells (1.5×106) treated with the test agent at the indicated concentrations in RPMI 1640 medium for 24 h were collected and sonicated. Protein concentrations of the lysates were determined by using a Bradford protein assay kit (Bio-Rad, Hercules, Calif.); equivalent amounts of proteins from each lysate were resolved in 10% SDS-polyacrylamide gel and then transferred onto Immobilon-nitrocellulose membranes (Millipore, Bellerica, MA) in a semidry transfer cell. The transblotted membrane was washed twice with Tris-buffered saline (TBS) containing 0.1% Tween 20 (TBST). After blocking with TBST containing 5% nonfat milk for 40 min, the membrane was incubated with the primary antibody (1:1000 dilution) in TBST-1% nonfat milk at 4° C. overnight. After treatment with the primary antibody, the membrane was washed three times with TBST for a total of 15 min, followed by goat anti-rabbit or anti-mouse IgG-horseradish peroxidase conjugates (diluted 1:3000) for 1 h at room temperature and wash three times with TBST for a total of 1 h. The immunoblots were visualized by enhanced chemiluminescence.

[4] = test system: sixty human tumor cells lines; assay: NCI Developmental Therapeutic Program screening against sixty human tumor cell lines; assay type: cell-based; details: for GI50: Homo sapiens, mean among sixty cell lines, read-out: mean GI50 (concentration resulting in 50% growth inhibition); for sensitivity of all tested cell lines to growth inhibitory effects: sixty cell lines
From the text: (§4) Further structural improvement was accomplished by replacing the methoxy side chains on the quinazoline ring with propoxy functions. Both 33 and 44 were effective in suppressing the proliferation of different prostate cancer cell lines at low μM levels. In addition, both agents were submitted to the Developmental Therapeutic Program (DTP) at the National Cancer Institute (NCI) for screening against sixty human tumor cells lines, representing leukemia, melanoma, and cancers of lung, colon, brain, ovary, breast, prostate, and kidney.

[5] = test system: different prostate cancer cell lines; assay: Proliferation of different prostate cancer cell lines; assay type: cell-based; details: at low μM levels
From the text: as §4

Work on `COc1cc2nc(N3CCN(S(=O)(=O)c4cccc5ccccc45)CC3)nc(N)c2cc1OC` [Compound 30, 6,7-Dimethoxy-2-[4-(naphthalene-1-sulfonyl)-piperazin-1-yl]-quinazolin-4-yl-amine] yielded an IC50 ([1]; Homo sapiens, PC-3, 48 h) of 14 ± 2 µM.
`COc1cc2nc(N3CCN(S(=O)(=O)c4ccc5ccccc5c4)CC3)nc(N)c2cc1OC` [Compound 31, 6,7-Dimethoxy-2-[4-(naphthalene-2-sulfonyl)-piperazin-1-yl]-quinazolin-4-yl-amino] showed an IC50 ([1]; Homo sapiens, PC-3, 48 h) of 15 ± 2 µM.
In the case of `COc1cc2nc(N3CCN(S(=O)(=O)c4cccc5c(N(C)C)cccc45)CC3)nc(N)c2cc1OC` [Compound 32, 2-[4-(5-Dimethylamino-naphthalene-1-sulfonyl)-piperazin-1-yl]-6,7-dimethoxy-quinazolin-4-ylamine], the IC50 ([1]; Homo sapiens, PC-3, 48 h) is reported as 29 ± 4 µM.
Compound `COc1cc2nc(N3CCN(S(=O)(=O)c4ccc(-c5ccccc5)cc4)CC3)nc(N)c2cc1OC` [Compound 33, 2-[4-(Biphenyl-4-sulfonyl)-piperazin-1-yl]-6,7-dimethoxy-quinazolin-4-ylamine] has an IC50 ([1]; Homo sapiens, PC-3, 48 h) of 4 to 5 µM, an IC50 ([1]; 48 h) of 4.2 ± 0.8 µM and an IC50 [2] of roughly 2.5 µM. The “effect on Akt phosphorylation” value [3] was “inhibition of Akt activation”, the GI50 [4] was 2.2 µM and the “sensitivity of all tested cell lines to growth inhibitory effects” value [4] was “high degree of sensitivity”. For the same compound, the suppressing the proliferation [5] was “effective”.
`COc1cc2nc(N3CCN(S(=O)(=O)c4c(C(C)C)cc(C(C)C)cc4C(C)C)CC3)nc(N)c2cc1OC` [Compound 34, 6,7-Dimethoxy-2-[4-(2,4,6-triisopropyl-benzonesulfonyl)-piperazin-1-yl]-quinazolin-4-yl-amine] showed an IC50 ([1]; 48 h) of 24 ± 3 µM.
Work on `COc1cc2nc(N3CCN(S(=O)(=O)c4ccc(-c5cc6ccccc6c6ccccc56)cc4)CC3)nc(N)c2cc1OC` [Compound 35, 6,7-Dimethoxy-2-[4-(4-phenanthren-9-yl-benzenesulfonyl)-piperazin-1-yl]-quinazolin-4-ylamine] yielded an IC50 ([1]; Homo sapiens, PC-3, 48 h) of 4 to 5 µM and an IC50 ([1]; 48 h) of 5.2 ± 0.9 µM.
For `COc1cc2nc(N3CCN(S(=O)(=O)c4ccc(-c5ccc(C)cc5)cc4)CC3)nc(N)c2cc1OC` [Compound 36, 6,7-Dimethoxy-2-[4-(4′-methyl-biphenyl-4-sulfonyl)-piperazin-1-yl]-quinazolin-4-yl-amine], the IC50 ([1]; Homo sapiens, PC-3, 48 h) was 3.4 ± 0.4 µM.
Compound `COc1cc2nc(N3CCN(S(=O)(=O)c4ccc(-c5ccc(C(F)(F)F)cc5)cc4)CC3)nc(N)c2cc1OC` [Compound 37, 6,7-Dimethoxy-2-[4-(4′-trifluoromethyl-biphenyl-4-sulfonyl)-piperazin-1-yl]-quinazolin-4-yl-amine] has an IC50 ([1]; Homo sapiens, PC-3, 48 h) of 3.3 ± 0.3 µM.
Work on `COc1cc2nc(N3CCN(S(=O)(=O)c4ccc(-c5ccc(S(C)(=O)=O)cc5)cc4)CC3)nc(N)c2cc1OC` [Compound 38, 2-[4-(4′-Methanesulfonyl-biphenyl-4-sulfonyl)-piperazin-1-yl]-6,7-dimethoxy-quinazolin-4-ylamine] yielded an IC50 ([1]; Homo sapiens, PC-3, 48 h) of 7.2 ± 0.5 µM.
In the case of `CCCCc1ccc(-c2ccc(S(=O)(=O)N3CCN(c4nc(N)c5cc(OC)c(OC)cc5n4)CC3)cc2)cc1` [Compound 39, 2-[4-(4′-Butyl-biphenyl-4-sulfonyl)-piperazin-1-yl]-6,7-dimethoxy-quinazolin-4-yl-amine], the IC50 ([1]; Homo sapiens, PC-3, 48 h) is reported as 3.4 ± 0.2 µM.
Compound `COc1cc2nc(N3CCN(S(=O)(=O)c4ccc(-c5ccc(C(C)(C)C)cc5)cc4)CC3)nc(N)c2cc1OC` [Compound 40, 2-[4-(4′-tert-Butyl-biphenyl-4-sulfonyl)-piperazin-1-yl]-6,7-dimethoxy-quinazolin-4-yl-amine] has an IC50 ([1]; Homo sapiens, PC-3, 48 h) of 10 ± 2 µM.
For `C=CCOc1cc2nc(N3CCN(S(=O)(=O)c4ccc(-c5ccccc5)cc4)CC3)nc(N)c2cc1OCC=C` [Compound 43, 6,7-Bis-allyloxy-2-[4-(biphenyl-4-sulfonyl)-piperazin-1-yl]-quinazolin-4-ylamine], the IC50 ([1]; Homo sapiens, PC-3, 48 h) was 3.3 ± 0.4 µM.
In the case of `CCCOc1cc2nc(N3CCN(S(=O)(=O)c4ccc(-c5ccccc5)cc4)CC3)nc(N)c2cc1OCCC` [Compound 44, 2-[4-(Biphenyl-4-sulfonyl)-piperazin-1-yl]-6,7-dipropoxy-quinazolin-4-yl-amine], the IC50 ([1]; Homo sapiens, PC-3, 48 h) is reported as 2.5 µM, the “concentration at which dephosphorylation of phospho-Akt was evident (as low as)” value ([3]; 48 h, Western blot (FIG. 6C)) is reported as 1 µM and the “effect on Akt phosphorylation” value [3] is reported as “dephosphorylation of phospho-Akt in a dose-dependent manner”. The GI50 [4] was 1.5 µM, the “sensitivity of all tested cell lines to growth inhibitory effects” value [4] was “high degree of sensitivity” and the suppressing the proliferation [5] was “effective”.
With `CC(C)Oc1cc2nc(N3CCN(S(=O)(=O)c4ccc(-c5ccccc5)cc4)CC3)nc(N)c2cc1OC(C)C` [Compound 45, 2-[4-(Biphenyl-4-sulfonyl)-piperazin-1-yl]-6,7-diisopropoxy-quinazolin-4-yl-amine] the IC50 ([1]; Homo sapiens, PC-3, 48 h) was 24 µM.
`CCCCOc1cc2nc(N3CCN(S(=O)(=O)c4ccc(-c5ccccc5)cc4)CC3)nc(N)c2cc1OCCCC` [Compound 46, 2-[4-(Biphenyl-4-sulfonyl)-piperazin-1-yl]-6,7-dibutoxy-quinazolin-4-ylamine] was tested, and the IC50 ([1]; Homo sapiens, PC-3, 48 h) was 3.5 ± 0.4 µM.

From patent US8377948B2, “Antitumor agents and methods of their use” (The Ohio State University Research Foundation, priority 2004, dated 2013)
